Test results published in US20240335429A1, “MOLECULAR GLUE AND SALL4 DEGRADER” (National University of Singapore, priority 2021, published 2024).
Read-outs that look alike come from different tables or passages of the source.

Assays:
IKZF1 = target: T1, IKZF1 (Homo sapiens, UniProt Q13422); assay: Immunoblot of IKZF1 in SNU-398 HCC cells; format: cell-based; details: SNU-398 cells
T1 construct: with immunoblots in SNU-398 HCC cells; endogenous in cells; host or cells: SNU-398 HCC cells
Description: RIPA buffer containing freshly added protease inhibitors (2 mM PMSF) and protease inhibitor cocktail was used for cell lysis. The lysed cells were incubated for 10 min on ice and subsequently centrifuged at 4° C. for 10 min at 14,000 rpm. The protein concentrations of cell lysates were assessed using Bradford Assay as per manufacturer's instructions. The samples were denatured using 4× Sample buffer at 95° C. for 5 min. The samples were size resolved using polyacrylamide gel (8%) and Mini-PROTEAN Tetra Cell module. The size-resolved proteins were transferred onto PVDF via electroblotting using Mini Trans-Blot® module. The membrane was blocked using 5% BSA in TBST. The membrane was incubated with appropriate primary antibody (overnight) and secondary antibody (1 h). Immobilon Crescendo Western HRP substrate was used for signal development and images were acquired using darkroom development techniques.

[1] = test system: SNU-387, SNU-449, SNU-475, and H1299 cells; assay: CellTiter-Glo viability assay, SALL4-low cell panel; format: cell-based, human; details: 72 h cell viability panel of HCC and lung cancer cell lines
Description: (§1) Cells were plated in RPMI culture media (40 μL) in 384-well white, flat-bottom plates (Corning) and incubated at 37° C. in a humidified atmosphere of 5% CO2 overnight. The numbers of cells per well were 1,500 for SNU-398 and SNU-182, 750 for SNU-387, SNU-449, SNU-475 and SNU-423, and 1,000 for H661 and H1299. After overnight incubation, 10 μL of drug (1% DMSO in RPMI) at designed concentrations were added to the cells. The cells were then incubated for 16, 24, 48, 72, or 96 h at 37° C. in a humidified atmosphere of 5% CO2 before CellTiter-Glo reagent (10 μL) was dispensed to the wells. The cells were incubated at room temperature for a minimum of 10 min. After that, luminescence readings were recorded by a Microplate Reader (PHERAstar or Tecan Infinite M200 Pro) according to the manufacturer's instruction for measuring the luminescence.

[2] = as above; format: cell-based, human; details: human, SNU-387, SNU-449, SNU-475 and H1299 cells (SALL4-low); SALL4-low cells, highest dose 30 μM, 72 h; read-out: cells remained viable
Description: as §1

[3] = target: T2, SALL4B-Nluc in H1299 cells (Homo sapiens, UniProt Q96SW2+Q9UJQ4); assay: Dual-luciferase SALL4B reporter cellular assay (main screen), Nluc/Fluc ratio; format: cell-based
T2 construct: expressed in transfected cells
Source text: SALL4A or SALL4B was cloned into the dual-luciferase plasmid (pLL3.7-EF1a-IRES-Gateway-nluc-2xHA-IRES2-fluc-hCL1-P2A-Puro from Prof. William G. Kaelin group) to create a stable cell line (H1299, SALL4 negative) that ectopically express the SALL4A or B-NanoLuc fusion protein. SALL4A or B fused to nanoluciferase (Nluc) was expressed in a multicistronic mRNA with control firefly luciferase (Fluc). The measurement of Nluc/Fluc ratio enabled the determination of SALL4 fusion protein degradation relative to the internal Fluc control, independent of effects on transcription (FIG. 1A-B).
The assay was performed as described in Example 1 except in a 1,536-well plate which allows HTS of thermal shift hits from the primary screen, searching for SALL4 small molecule binders that can degrade the oncogenic SALL4B isoform. H1299 cells that stably express SALL4A/B_Nluc_Fluc were seeded in a 1,536-well clear bottom white plate (Corning) at 2,000 cells per well in RPMI medium (6 μL) and grown overnight (16 h) at 37° C., 5% CO2. Cells were treated with 8 μM of compounds for 6 h. Nano-Glo® Dual-Luciferase® Reporter Assay System and Pherastar plate reader were used for measuring the luciferase signal, following the manufacturer's instruction. For data analysis, the Nanoluc luminescence is normalized to firefly luciferase reading and then compared to the DMSO control. The screen was performed in triplicates.
The inventors treated H1299 cells overexpressing SALL4B_Nluc and the HCC (SNU-398, SNU-182) and NSCLC cells (H661) with increasing concentrations of QE-18-WG07 and IMiDs, and assayed the SALL4B_Nluc, as well as the endogenous SALL4A and B levels by immunoblots described in Example 4.

SNU-398 cells = assay: CellTiter-Glo viability assay, SNU-398; format: cell-based, human; details: for IC50: read-out: IC50 of cell proliferation / viability
Description: as §1

SNU-182 cells = assay: CellTiter-Glo viability assay, SNU-182; format: cell-based; details: Homo sapiens, 72 h
Description: as §1

T2 sequence (Q9UJQ4 1-616 isoform Q9UJQ4-2): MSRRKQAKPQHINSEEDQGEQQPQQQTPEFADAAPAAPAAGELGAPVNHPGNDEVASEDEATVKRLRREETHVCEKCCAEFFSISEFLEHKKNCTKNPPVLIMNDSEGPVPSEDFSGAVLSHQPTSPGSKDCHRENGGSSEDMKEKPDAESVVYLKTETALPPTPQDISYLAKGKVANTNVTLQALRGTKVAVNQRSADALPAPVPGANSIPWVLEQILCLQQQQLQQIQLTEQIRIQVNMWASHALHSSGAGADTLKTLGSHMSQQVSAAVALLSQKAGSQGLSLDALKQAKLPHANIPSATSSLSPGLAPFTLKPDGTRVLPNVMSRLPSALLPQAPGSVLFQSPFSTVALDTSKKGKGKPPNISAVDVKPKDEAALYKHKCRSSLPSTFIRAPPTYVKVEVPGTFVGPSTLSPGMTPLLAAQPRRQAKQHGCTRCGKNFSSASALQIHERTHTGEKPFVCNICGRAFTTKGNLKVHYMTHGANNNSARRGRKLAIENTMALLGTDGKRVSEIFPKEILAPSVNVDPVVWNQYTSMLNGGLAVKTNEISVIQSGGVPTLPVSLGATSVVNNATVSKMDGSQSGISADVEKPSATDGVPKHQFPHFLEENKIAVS
T2 sequence (Q96SW2 whole entry): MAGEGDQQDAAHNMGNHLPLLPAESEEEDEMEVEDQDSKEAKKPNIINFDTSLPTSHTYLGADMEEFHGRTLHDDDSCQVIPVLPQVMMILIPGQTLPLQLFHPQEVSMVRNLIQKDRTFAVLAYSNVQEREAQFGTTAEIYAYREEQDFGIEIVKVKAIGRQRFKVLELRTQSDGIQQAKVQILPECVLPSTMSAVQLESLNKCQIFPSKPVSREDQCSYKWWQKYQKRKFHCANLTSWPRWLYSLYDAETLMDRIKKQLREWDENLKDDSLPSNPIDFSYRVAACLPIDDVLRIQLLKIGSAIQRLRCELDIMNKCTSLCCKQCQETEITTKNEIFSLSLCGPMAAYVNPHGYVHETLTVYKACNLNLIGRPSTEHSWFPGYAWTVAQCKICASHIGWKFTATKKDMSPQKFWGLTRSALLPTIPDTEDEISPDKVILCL
T2 sequence (Q16531 whole entry partner): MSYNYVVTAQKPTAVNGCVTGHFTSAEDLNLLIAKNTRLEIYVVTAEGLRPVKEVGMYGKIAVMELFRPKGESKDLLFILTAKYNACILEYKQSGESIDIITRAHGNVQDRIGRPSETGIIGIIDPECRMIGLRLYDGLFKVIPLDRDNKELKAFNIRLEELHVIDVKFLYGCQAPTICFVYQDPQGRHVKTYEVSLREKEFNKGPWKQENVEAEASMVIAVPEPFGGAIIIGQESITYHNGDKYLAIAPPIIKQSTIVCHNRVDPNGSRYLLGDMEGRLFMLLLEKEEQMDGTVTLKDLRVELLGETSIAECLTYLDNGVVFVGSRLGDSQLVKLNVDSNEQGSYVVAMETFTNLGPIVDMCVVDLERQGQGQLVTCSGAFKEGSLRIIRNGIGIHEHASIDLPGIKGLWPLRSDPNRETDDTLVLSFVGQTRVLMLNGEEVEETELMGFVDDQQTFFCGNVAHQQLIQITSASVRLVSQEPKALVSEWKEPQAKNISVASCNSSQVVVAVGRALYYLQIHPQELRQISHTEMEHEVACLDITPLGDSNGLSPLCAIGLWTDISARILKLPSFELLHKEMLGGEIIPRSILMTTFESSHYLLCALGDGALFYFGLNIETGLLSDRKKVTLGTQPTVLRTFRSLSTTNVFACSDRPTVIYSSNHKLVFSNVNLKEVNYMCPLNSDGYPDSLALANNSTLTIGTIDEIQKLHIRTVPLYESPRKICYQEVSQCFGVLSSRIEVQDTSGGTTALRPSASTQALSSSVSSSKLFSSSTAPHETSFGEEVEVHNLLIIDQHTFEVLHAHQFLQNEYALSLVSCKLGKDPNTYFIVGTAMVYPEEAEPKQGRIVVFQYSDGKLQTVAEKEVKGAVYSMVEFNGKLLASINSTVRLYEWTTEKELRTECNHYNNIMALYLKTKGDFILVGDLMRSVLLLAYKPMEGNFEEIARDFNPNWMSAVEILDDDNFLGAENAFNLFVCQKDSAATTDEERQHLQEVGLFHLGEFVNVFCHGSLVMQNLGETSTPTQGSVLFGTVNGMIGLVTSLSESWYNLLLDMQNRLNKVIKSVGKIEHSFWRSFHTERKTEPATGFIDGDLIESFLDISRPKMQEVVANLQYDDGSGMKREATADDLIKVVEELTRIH
T1 sequence (Q13422 whole entry): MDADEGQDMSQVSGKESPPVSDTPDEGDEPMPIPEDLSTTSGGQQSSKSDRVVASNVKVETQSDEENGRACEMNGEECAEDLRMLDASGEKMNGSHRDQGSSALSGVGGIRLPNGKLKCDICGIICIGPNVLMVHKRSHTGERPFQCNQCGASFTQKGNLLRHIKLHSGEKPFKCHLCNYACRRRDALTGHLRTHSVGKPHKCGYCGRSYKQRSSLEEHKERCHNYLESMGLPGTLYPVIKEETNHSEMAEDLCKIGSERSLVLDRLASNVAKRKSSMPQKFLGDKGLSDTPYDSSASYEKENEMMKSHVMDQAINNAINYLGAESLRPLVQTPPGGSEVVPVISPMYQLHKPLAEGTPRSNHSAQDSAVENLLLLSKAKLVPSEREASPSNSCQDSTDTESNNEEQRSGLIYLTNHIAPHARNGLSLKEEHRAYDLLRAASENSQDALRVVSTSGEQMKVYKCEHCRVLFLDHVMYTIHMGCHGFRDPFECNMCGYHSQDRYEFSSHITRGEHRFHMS

## COc1ccccc1NC(=O)Nc1ccc([N+](=O)[O-])cc1O [QE-18-WG07]
IKZF1
  degradation of IKZF1: did not degrade
[1]
  selectivity of anti-proliferative effect, SALL4-high over SALL4-low cancer cells: up to 58 fold
[2]
  viability at 72 h, 30 μM: 30 to 60%
[3]; 8 μM, 6 h, H1299 cells overexpressing SALL4B fused with Nluc
  main screen readout: −31
[3]; NCI-H1299, SALL4B dual-luciferase reporter assay, 9 hours of treatment, read-out: maximum degradation (Dmax) of SALL4B_Nluc
  Dmax: 75%
[3]; after 6 h of incubation in H1299 cells overexpressing SALL4B fused with Nluc
  reduction in the amount of SALL4B protein: 31%
[3]; normalized to DMSO control, mean ± SD (n = 3), 8 μM, 6 h treatment, H1299 cells
  SALL4B_Luc Reporter Assay % SALL4B Downregulation: 29.8 ± 1.8%
SNU-398 cells; 72 h
  IC50: 397 nM
SNU-398 cells; Homo sapiens, 72 h, achieved at 1 μM, read-out: maximum growth inhibition Emax
  Emax at 1 µM: 90 to 100%
SNU-398 cells; Homo sapiens, 72 h cell viability, read-out: half maximal growth inhibition EC50
  EC50: 310 nM
SNU-398 cells; Homo sapiens, SNU-398, 72 h, 72 h
  IC50: 280 nM
SNU-182 cells; achieved at 1 μM, read-out: maximum growth inhibition Emax
  Emax at 1 µM: 90 to 100%
SNU-182 cells; read-out: IC50 of cell viability
  IC50: 951 nM
